Experimental data from the OligoGym collection.
HELM strings list units from the 5' end as sugar, base in round brackets, then linkage (d deoxyribose, r ribose, m 2'-O-methyl, p phosphodiester). Strings are as the collection lists them; they lack the last nucleoside at the 3' end of the tested compound. [moe] = 2'-O-(2-methoxyethyl) (MOE); [sp] = phosphorothioate linkage; [m5C] = 5-methylcytosine

Target: SCN2A
Assay: mouse, dose not given
Conditions: ASO

Row | Substance | 3 h FOB score [score 0-7]
1 | RNA1{[moe](A)[sp].[moe]([m5C])p.[moe](G)p.[moe](A)p.d([m5C])[sp].d(A)[sp].d(T)[sp].d(A)[sp].d(T)[sp].d(T)[sp].d(T)[sp].d(T)[sp].d(T)[sp].d([m5C])[sp].[moe](T)p.[moe](A)p.[moe]([m5C])p.[moe](A)[sp].[moe]([m5C])}$$$$ (last 3' nucleoside missing) | 0
2 | RNA1{[moe](A)[sp].[moe]([m5C])p.[moe](T)p.[moe](G)p.[moe](G)p.d([m5C])[sp].d(T)[sp].d(A)[sp].d(T)[sp].d(A)[sp].d([m5C])[sp].d(T)[sp].d([m5C])[sp].d(A)[sp].d(T)[sp].[moe](T)p.[moe](G)p.[moe]([m5C])[sp].[moe](T)}$$$$ (last 3' nucleoside missing) | 1.33
3 | RNA1{[moe](A)[sp].[moe]([m5C])p.[moe]([m5C])p.[moe](A)p.[moe]([m5C])p.[moe](G)p.d([m5C])[sp].d(T)[sp].d(T)[sp].d(A)[sp].d([m5C])[sp].d(A)[sp].d(T)[sp].d([m5C])[sp].d(A)[sp].d(A)[sp].[moe](A)p.[moe]([m5C])[sp].[moe](A)}$$$$ (last 3' nucleoside missing) | 0
4 | RNA1{[moe](A)[sp].[moe]([m5C])p.[moe]([m5C])p.[moe](A)p.[moe]([m5C])p.d(G)[sp].d([m5C])[sp].d(T)[sp].d(T)[sp].d(A)[sp].d([m5C])[sp].d(A)[sp].d(T)[sp].d([m5C])[sp].d(A)[sp].[moe](A)p.[moe](A)p.[moe]([m5C])[sp].[moe](A)}$$$$ (last 3' nucleoside missing) | 0.33
5 | RNA1{[moe](A)[sp].[moe]([m5C])p.[moe]([m5C])p.[moe](A)p.d([m5C])[sp].d(G)[sp].d([m5C])[sp].d(T)[sp].d(T)[sp].d(A)[sp].d([m5C])[sp].d(A)[sp].d(T)[sp].d([m5C])[sp].[moe](A)p.[moe](A)p.[moe](A)p.[moe]([m5C])[sp].[moe](A)}$$$$ (last 3' nucleoside missing) | 0
6 | RNA1{[moe](A)[sp].[moe]([m5C])p.[moe]([m5C])p.[moe](G)p.[moe](A)p.[moe](A)p.d(T)[sp].d(T)[sp].d([m5C])[sp].d(T)[sp].d(A)[sp].d(T)[sp].d(T)[sp].d(T)[sp].d(T)[sp].d(A)[sp].[moe](T)p.[moe](A)[sp].[moe](A)}$$$$ (last 3' nucleoside missing) | 1.67
7 | RNA1{[moe](A)[sp].[moe]([m5C])p.[moe]([m5C])p.[moe](G)p.[moe](A)p.d(A)[sp].d(T)[sp].d(T)[sp].d([m5C])[sp].d(T)[sp].d(A)[sp].d(T)[sp].d(T)[sp].d(T)[sp].d(T)[sp].[moe](A)p.[moe](T)p.[moe](A)[sp].[moe](A)}$$$$ (last 3' nucleoside missing) | 1.67
8 | RNA1{[moe](A)[sp].[moe]([m5C])p.[moe]([m5C])p.[moe](G)p.[moe](T)p.d([m5C])[sp].d(T)[sp].d([m5C])[sp].d(T)[sp].d(T)[sp].d(T)[sp].d([m5C])[sp].d(T)[sp].d(T)[sp].d(A)[sp].[moe](T)p.[moe](T)p.[moe](T)[sp].[moe]([m5C])}$$$$ (last 3' nucleoside missing) | 7
9 | RNA1{[moe](A)[sp].[moe]([m5C])p.[moe]([m5C])p.[moe]([m5C])p.[moe](A)[sp].d(G)[sp].d(T)[sp].d(T)[sp].d(T)[sp].d(T)[sp].d(T)[sp].d(T)[sp].d([m5C])[sp].[moe](A)p.[moe](T)p.[moe](T)[sp].[moe](G)}$$$$ (last 3' nucleoside missing) | 1.33
10 | RNA1{[moe](A)[sp].[moe]([m5C])p.[moe]([m5C])p.[moe]([m5C])p.[moe](A)p.[moe](G)[sp].d(T)[sp].d(T)[sp].d(T)[sp].d(T)[sp].d(T)[sp].d(T)[sp].d([m5C])[sp].d(A)[sp].[moe](T)p.[moe](T)[sp].[moe](G)}$$$$ (last 3' nucleoside missing) | 2
11 | RNA1{[moe](A)[sp].[moe]([m5C])p.[moe]([m5C])p.[moe]([m5C])p.[moe](A)p.d(G)[sp].d(T)[sp].d(T)[sp].d(T)[sp].d(T)[sp].d(T)[sp].d(T)[sp].d([m5C])[sp].d(A)[sp].d(T)[sp].[moe](T)p.[moe](G)p.[moe]([m5C])[sp].[moe](A)}$$$$ (last 3' nucleoside missing) | 0
12 | RNA1{[moe](G)[sp].[moe](A)p.[moe](A)p.[moe](A)p.[moe](G)p.d(T)[sp].d(A)[sp].d(G)[sp].d(T)[sp].d(A)[sp].d([m5C])[sp].d([m5C])[sp].d(A)[sp].d(T)[sp].d(T)[sp].[moe]([m5C])p.[moe]([m5C])p.[moe]([m5C])[sp].[moe](A)}$$$$ (last 3' nucleoside missing) | 1.67
13 | RNA1{[moe](G)[sp].[moe](A)p.[moe](A)p.[moe](T)p.[moe](T)p.[moe]([m5C])p.d(T)[sp].d(A)[sp].d(T)[sp].d(T)[sp].d(T)[sp].d(T)[sp].d(A)[sp].d(T)[sp].d(A)[sp].d(A)[sp].[moe](A)p.[moe](T)[sp].[moe](G)}$$$$ (last 3' nucleoside missing) | 1
14 | RNA1{[moe](G)[sp].[moe](A)p.[moe](A)p.[moe](T)p.[moe](T)p.d([m5C])[sp].d(T)[sp].d(A)[sp].d(T)[sp].d(T)[sp].d(T)[sp].d(T)[sp].d(A)[sp].d(T)[sp].d(A)[sp].[moe](A)p.[moe](A)p.[moe](T)[sp].[moe](G)}$$$$ (last 3' nucleoside missing) | 1
15 | RNA1{[moe](G)[sp].[moe](A)p.[moe](A)p.[moe](T)p.d(T)[sp].d([m5C])[sp].d(T)[sp].d(A)[sp].d(T)[sp].d(T)[sp].d(T)[sp].d(T)[sp].d(A)[sp].d(T)[sp].[moe](A)p.[moe](A)p.[moe](A)p.[moe](T)[sp].[moe](G)}$$$$ (last 3' nucleoside missing) | 0.67
16 | RNA1{[moe](G)[sp].[moe](A)p.[moe](G)p.[moe](A)p.[moe](G)p.d(A)[sp].d(T)[sp].d(T)[sp].d(G)[sp].d([m5C])[sp].d(T)[sp].d(T)[sp].d(T)[sp].d([m5C])[sp].d([m5C])[sp].[moe]([m5C])p.[moe](T)p.[moe](T)[sp].[moe](T)}$$$$ (last 3' nucleoside missing) | 1.33
17 | RNA1{[moe](G)[sp].[moe](A)p.[moe](G)p.[moe](A)p.[moe](T)p.d(T)[sp].d(G)[sp].d([m5C])[sp].d(T)[sp].d(T)[sp].d(T)[sp].d([m5C])[sp].d([m5C])[sp].d([m5C])[sp].d(T)[sp].[moe](T)p.[moe](T)p.[moe](A)[sp].[moe](T)}$$$$ (last 3' nucleoside missing) | 1
18 | RNA1{[moe](G)[sp].[moe](A)p.[moe]([m5C])p.[moe](A)p.[moe](T)p.d(A)[sp].d(T)[sp].d(T)[sp].d(T)[sp].d(T)[sp].d(T)[sp].d([m5C])[sp].d(T)[sp].d(A)[sp].d([m5C])[sp].[moe](A)p.[moe]([m5C])p.[moe](T)[sp].[moe](G)}$$$$ (last 3' nucleoside missing) | 1.67
19 | RNA1{[moe](G)[sp].[moe](A)p.[moe]([m5C])p.[moe](A)p.d(T)[sp].d(A)[sp].d(T)[sp].d(T)[sp].d(T)[sp].d(T)[sp].d(T)[sp].d([m5C])[sp].d(T)[sp].d(A)[sp].[moe]([m5C])p.[moe](A)p.[moe]([m5C])p.[moe](T)[sp].[moe](G)}$$$$ (last 3' nucleoside missing) | 1
20 | RNA1{[moe](G)[sp].[moe](A)p.[moe]([m5C])p.[moe]([m5C])p.[moe](A)p.[moe]([m5C])p.d(G)[sp].d([m5C])[sp].d(T)[sp].d(T)[sp].d(A)[sp].d([m5C])[sp].d(A)[sp].d(T)[sp].d([m5C])[sp].d(A)[sp].[moe](A)p.[moe](A)[sp].[moe]([m5C])}$$$$ (last 3' nucleoside missing) | 0
21 | RNA1{[moe](G)[sp].[moe](A)p.[moe]([m5C])p.[moe]([m5C])p.[moe](G)p.[moe](A)p.d(A)[sp].d(T)[sp].d(T)[sp].d([m5C])[sp].d(T)[sp].d(A)[sp].d(T)[sp].d(T)[sp].d(T)[sp].d(T)[sp].[moe](A)p.[moe](T)[sp].[moe](A)}$$$$ (last 3' nucleoside missing) | 0
22 | RNA1{[moe](G)[sp].[moe](A)p.[moe]([m5C])p.[moe]([m5C])p.[moe](G)p.[moe](T)p.d([m5C])[sp].d(T)[sp].d([m5C])[sp].d(T)[sp].d(T)[sp].d(T)[sp].d([m5C])[sp].d(T)[sp].d(T)[sp].d(A)[sp].[moe](T)p.[moe](T)[sp].[moe](T)}$$$$ (last 3' nucleoside missing) | 0
23 | RNA1{[moe](G)[sp].[moe](A)p.[moe]([m5C])p.[moe]([m5C])p.[moe](G)p.d(A)[sp].d(A)[sp].d(T)[sp].d(T)[sp].d([m5C])[sp].d(T)[sp].d(A)[sp].d(T)[sp].d(T)[sp].d(T)[sp].[moe](T)p.[moe](A)p.[moe](T)[sp].[moe](A)}$$$$ (last 3' nucleoside missing) | 1
24 | RNA1{[moe](G)[sp].[moe](A)p.[moe]([m5C])p.[moe]([m5C])p.[moe](G)p.d(T)[sp].d([m5C])[sp].d(T)[sp].d([m5C])[sp].d(T)[sp].d(T)[sp].d(T)[sp].d([m5C])[sp].d(T)[sp].d(T)[sp].[moe](A)p.[moe](T)p.[moe](T)[sp].[moe](T)}$$$$ (last 3' nucleoside missing) | 0
25 | RNA1{[moe](G)[sp].[moe](A)p.[moe]([m5C])p.[moe]([m5C])p.d(A)[sp].d([m5C])[sp].d(G)[sp].d([m5C])[sp].d(T)[sp].d(T)[sp].d(A)[sp].d([m5C])[sp].d(A)[sp].d(T)[sp].[moe]([m5C])p.[moe](A)p.[moe](A)p.[moe](A)[sp].[moe]([m5C])}$$$$ (last 3' nucleoside missing) | 4
26 | RNA1{[moe](G)[sp].[moe](A)p.[moe]([m5C])p.[moe]([m5C])p.d(G)[sp].d(A)[sp].d(A)[sp].d(T)[sp].d(T)[sp].d([m5C])[sp].d(T)[sp].d(A)[sp].d(T)[sp].d(T)[sp].[moe](T)p.[moe](T)p.[moe](A)p.[moe](T)[sp].[moe](A)}$$$$ (last 3' nucleoside missing) | 0
